Assay results: the supplement of paper PMC8882468

Columns and labels:
Assay in all cases: CTG-3D luminescence at 96 h relative to day-0 seeding control (ratio to day 0); higher = more growth / less cytotoxicity; PDxO 3D drug screen, 96 h, CTG-3D normalised to day-0 seeding control.
HCI-012 = system: HCI-012 (organoid from a breast cancer xenograft)
HCI-011.E2 = system: HCI-011.E2 (organoid from an ER-positive breast cancer xenograft)
HCI-010 = system: HCI-010 (organoid from a breast cancer xenograft)
HCI-001 = system: HCI-001 (organoid from a triple-negative breast cancer xenograft)
HCI-027 = system: HCI-027 (organoid from a triple-negative breast cancer xenograft)
MDA-MB-231 = system: MDA-MB-231

CC[C@H](NC(=O)[C@H](C)NC)C(=O)N1C[C@@H](O)C[C@H]1Cc1c(-c2[nH]c3cc(F)ccc3c2C[C@@H]2C[C@H](O)CN2C(=O)[C@H](CC)NC(=O)[C@H](C)NC)[nH]c2cc(F)ccc12 [birinapant]
CTG-3D luminescence at 96 h
Conditions | 12.5 pM | 0.00025 µM | 0.005 µM | 0.1 µM | 1 µM | 10 µM | 100 µM | 625 fM
HCI-001, days in culture: 240 | 1.73 | 1.11 | 0.766 | 1.19 | 1.35 | 0.911 | 0.0991 | 1.19
HCI-001, days in culture: 260 | 2.4 | 0.757 | 1.95 | 1.48 | 1.34 | 1.44 | 0.312 | 1.51
HCI-001, days in culture: 269 | 1.5 | 1.67 | 1.54 | 1.87 | 1.68 | 2.3 | -0.0177 | 1.65
HCI-001, days in culture: 327 | 1.48 | 1.44 | 1.63 | 1.67 | 1.34 | 1.26 | 0.695 | 1.57
HCI-001, days in culture: 346 | 1.48 | 1.48 | 1.12 | 1.08 | 1.35 | 1.42 | 1.37 | 1.14
HCI-001, days in culture: 364 | 1.38 | 1.05 | 1.4 | 1.27 | 1.07 | 1.32 | 1.04 | 1.5
HCI-010, days in culture: 52 | 2.04 | 2.47 | 2.12 | 2.26 | 1.6 | 1.52 | 1.05 | 2.18
HCI-010, days in culture: 65 | 1.7 | 1.59 | 1.72 | 1.47 | 1.43 | 1.23 | 0.618 | 1.66
HCI-010, days in culture: 103 | 3.3 | 3.66 | 3.43 | 2.74 | 2.62 | 2.1 | 0.973 | 2.9
HCI-011.E2, days in culture: 74 | 2.25 | 2.3 | 1.91 | 1.82 | 1.85 | 1.48 | 1.22 | 2.46
HCI-012, days in culture: 143 | 1.9 | 1.6 | 0.979 | 1.05 | 0.841 | 1.03 | 0.0063 | 1.91
HCI-012, days in culture: 162 | 2.25 | 2.01 | 0.325 | 0.156 | 0.152 | 0.249 | 0.00568 | 2.83
HCI-012, days in culture: 201 | 2.65 | 2.24 | 1.46 | 0.262 | 0.102 | 0.277 | 0.0538 | 1.77
HCI-027, days in culture: 176 | 1.24 | 1.19 | 1.69 | 1.22 | 1.62 | 1.08 | 0.00679 | 1.18
HCI-027, days in culture: 194 | 1.58 | 1.02 | 0.983 | 0.99 | 1.14 | 1.31 | 0.129 | 1.53
HCI-027, days in culture: 201 | 1.64 | 1.19 | 1.14 | 0.985 | 0.933 | 1.13 | 0.11 | 1.76

CTG-3D luminescence at 96 h
Conditions | 12.5 pM | 0.00025 µM | 0.005 µM | 0.1 µM | 1 µM | 10 µM | 100 µM | 625 fM
HCI-011.E2 | 1.4 | 1.53 | 1.16 | 1.61 | 1.34 | 1.59 | 0.956 | 1.72
MDA-MB-231 | 4.36 | 4.2 | 4.35 | 1.96 | 2 | 2.03 | 2.41 | 4.39
